Like-named read-outs stand apart in the source and are kept apart here.
Tested on: Male Sprague-Dawley rats
Conditions: s.c. immediately after the sampling phase, six-hour delay

SMILES: Nc1c2c(nc3ccccc13)CCCC2 [Tacrine, tacrine]
- retention in the eight arm radial maze (3 mg/kg): not
- retention in the eight arm radial maze (10 mg/kg): significantly improved retention

From US7265246B2, “Indane derivates as muscarinic receptor agonists” (Eli Lilly and Company, priority 2003, dated 2007)
